Marks after values point to notes of the source that are not given here.
Legend:
Assay type in all cases: cell-based
[1] = test system: Rhizoctonia solani; assay: Mycelial growth from inoculum plugs in amended basal nutrient solution; conditions: for Growth of Rhizoctonia on amended basal nutrient solution: PCNB
Method: (§1) The efficacy of the garlic extract was tested against […] soil-borne fungi that cause root and lower stem rots of plants. The fungal pathogens included: Pythium aphanidermatum, Pythium irregular, Pythium ultimum, Phytophthora capsici, Phytophthora cinnamomi, Phytophthora nicotiana, Rhizoctonia solani, Fusarium oxysporum f.sp. lycopersici, Fusarium oxysporum f.sp. spinaciae, and Thielaviopsis basicola. All isolates used in this investigation were known to be pathogenic to various cultivated plant species.
(§2) All isolates of Pythium aphanidermatum, Pythium irregular, Pythum ultimum, Phytophthora capsici, Phytophthora cinnamomi, Phytophthora nicotiana, Rhizoctonia solani, Fusarium oxysporum f.sp. lycopersici, Fusarium oxysporum f.sp. spinaciae were grown on standard corn meal agar (CMA) for 8 to 9 days. Plugs from inoculum plates were taken using a #4 cork borer (5 mm diameter). Inoculum plugs were placed into 5-cm sterile plastic petri dishes containing 10 ml of a basal nutrient solution that consisted of 60% (v/v) clarified V-8 juice and sterile distilled water (SDW). Basal nutrient solutions were amended with the appropriate treatments. Treatments included SDW (non-treated control), a fungicidal agent appropriate to each species (metylaxyl for the Pythium and Phytophthora species, PCNB for Rhizoctonia, and Allegiance(r) for Fusarium), or 10%, 15%, 20%, 25%, or 30% (v/v) garlic extract. Cultures were placed into a growth chamber and maintained in the dark at 22(C(1(C. After 48 hours, mycelial growth (if any was visible) from culture plugs was measured.

[2] = test system: Pythium irregular; assay: as above; conditions: 48 hours
Method: as §1, §2

[3] = test system: Phytophthora nicotiana; assay: as above; conditions: 48 hours
Method: as §1, §2

[4] = test system: Pythium aphanidermatum; assay: as above; conditions: 48 hours
Method: as §1, §2

[5] = test system: Phytophthora cinnamomi; assay: as above; conditions: 48 hours
Method: as §1, §2

[6] = test system: Pythium ultimum; assay: as above; conditions: 48 hours
Method: as §1, §2

[7] = test system: Phytophthora capsici; assay: as above; conditions: 48 hours
Method: as §1, §2

[8] = test system: Pythium and Phytophthora species; assay: Mycelial growth in amended basal nutrient solution; conditions: basal nutrient solution amended with metalaxyl
Method: as §1
as §2, with “Treatments included SDW (non-treated control), a fungicidal agent appropriate to each species (metylaxyl for the Pythium and Phytophthora species, PCNB for Rhizoctonia, and Allegiance(r) for Fusarium), or 10%, 15%, 20%, 25%, or 30% (v/v) garlic extract.” left out

[9] = Fungicide control (Metylaxyl) in basal nutrient solution
[10] = Fungicide control (Metylaxyl), from edge of inoculum plug

Row | Compound | Plates with visible mycelial growth (%) ([1]; Fungicide control (PCNB) in basal nutrient solution, 48 hours) | Measured growth (cm) ([1]; Fungicide control (PCNB), 48 hours, from edge of inoculum plug) | Growth of Rhizoctonia on amended basal nutrient solution ([1]; first replication, inappropriate PCNB concentration) | Growth of Rhizoctonia on amended basal nutrient solution ([1]; second replication) | Plates with visible mycelial growth (%) [2, 9] [%] | Measured growth (cm) [2, 10] [cm] | Plates with visible mycelial growth (%) [3, 9] [%] | Measured growth (cm) [3, 10] [cm] | Plates with visible mycelial growth (%) [4, 9] [%] | Measured growth (cm) [4, 10] [cm] | Plates with visible mycelial growth (%) [5, 9] [%] | Measured growth (cm) [5, 10] [cm] | Plates with visible mycelial growth (%) [6, 9] [%] | Measured growth (cm) [6, 10] [cm] | Plates with visible mycelial growth (%) [7, 9] [%] | Measured growth (cm) [7, 10] [cm] | Pythium and Phytophthora species that grew from the inoculum plugs [8]
1 | O=[N+]([O-])c1c(Cl)c(Cl)c(Cl)c(Cl)c1Cl [PCNB] | 50^x % | 0.3 | limited amount of growth | did not grow | – | – | – | – | – | – | – | – | – | – | – | – | –
2 | COCC(=O)N(c1c(C)cccc1C)C(C)C(=O)OC (centres unmarked) [Metylaxyl] | – | – | – | – | 0 | 0 | 0 | 0 | 0 | 0 | 0 | 0 | 0 | 0 | 0 | 0 | none
